Patent US9987276B2 (Celgene CAR LLC, priority 2008, dated 2018)
Read-outs that look alike come from different tables or passages of the source.

Experiments:
BTK [1] = target: T1, BTK (Homo sapiens (Human), UniProt Q06187); test: Omnia assay for potency assessment against BTK; format: biochemical; settings: for IC50: [BTK]=5 nM, Omnia assay, read-out: BTK Inhibition (IC50)
Experimental: The modified BTK-optimized reagent conditions for the above protocol are:
[BTK]=5 nM, [ATP]=[…], [Y5-Sox]=[…] (ATP KMapp˜[…]).

ITK = ITK (Homo sapiens (Human), UniProt Q08881); test: Omnia assay for potency assessment against active forms of ITK kinase; format: biochemical; settings: [ITK]=10 nM, [ATP]=25, [Y6-Sox]=10 μM; read-out: ITK Inhibition
Sequence of ITK (Q08881 whole entry): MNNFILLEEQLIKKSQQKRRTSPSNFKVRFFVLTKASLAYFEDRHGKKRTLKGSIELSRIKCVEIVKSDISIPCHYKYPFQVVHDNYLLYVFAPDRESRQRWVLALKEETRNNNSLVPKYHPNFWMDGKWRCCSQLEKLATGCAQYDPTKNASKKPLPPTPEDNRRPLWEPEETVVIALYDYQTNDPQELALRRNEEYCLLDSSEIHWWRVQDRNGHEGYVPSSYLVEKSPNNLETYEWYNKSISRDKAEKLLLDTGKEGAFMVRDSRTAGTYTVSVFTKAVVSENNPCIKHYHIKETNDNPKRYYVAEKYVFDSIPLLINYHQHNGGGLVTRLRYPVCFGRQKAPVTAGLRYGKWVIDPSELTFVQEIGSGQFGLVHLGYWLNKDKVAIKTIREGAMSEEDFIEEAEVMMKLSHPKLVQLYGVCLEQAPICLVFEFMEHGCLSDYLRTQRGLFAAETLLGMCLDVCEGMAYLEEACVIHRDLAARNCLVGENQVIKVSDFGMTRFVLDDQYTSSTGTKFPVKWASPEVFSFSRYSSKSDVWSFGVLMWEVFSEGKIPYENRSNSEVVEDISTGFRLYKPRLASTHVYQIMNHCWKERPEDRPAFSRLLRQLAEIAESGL
Experimental: [ITK]=10 nM, [ATP]=25 [Y6-Sox]=10 μM (ATP KMapp=33 μM).

EGFR T790M = EGFR T790M (Homo sapiens (Human), UniProt P00533, T790M); test: EGFR mutant T790M inhibition assay; format: biochemical
Sequence of EGFR T790M (P00533 25-1210 T790M): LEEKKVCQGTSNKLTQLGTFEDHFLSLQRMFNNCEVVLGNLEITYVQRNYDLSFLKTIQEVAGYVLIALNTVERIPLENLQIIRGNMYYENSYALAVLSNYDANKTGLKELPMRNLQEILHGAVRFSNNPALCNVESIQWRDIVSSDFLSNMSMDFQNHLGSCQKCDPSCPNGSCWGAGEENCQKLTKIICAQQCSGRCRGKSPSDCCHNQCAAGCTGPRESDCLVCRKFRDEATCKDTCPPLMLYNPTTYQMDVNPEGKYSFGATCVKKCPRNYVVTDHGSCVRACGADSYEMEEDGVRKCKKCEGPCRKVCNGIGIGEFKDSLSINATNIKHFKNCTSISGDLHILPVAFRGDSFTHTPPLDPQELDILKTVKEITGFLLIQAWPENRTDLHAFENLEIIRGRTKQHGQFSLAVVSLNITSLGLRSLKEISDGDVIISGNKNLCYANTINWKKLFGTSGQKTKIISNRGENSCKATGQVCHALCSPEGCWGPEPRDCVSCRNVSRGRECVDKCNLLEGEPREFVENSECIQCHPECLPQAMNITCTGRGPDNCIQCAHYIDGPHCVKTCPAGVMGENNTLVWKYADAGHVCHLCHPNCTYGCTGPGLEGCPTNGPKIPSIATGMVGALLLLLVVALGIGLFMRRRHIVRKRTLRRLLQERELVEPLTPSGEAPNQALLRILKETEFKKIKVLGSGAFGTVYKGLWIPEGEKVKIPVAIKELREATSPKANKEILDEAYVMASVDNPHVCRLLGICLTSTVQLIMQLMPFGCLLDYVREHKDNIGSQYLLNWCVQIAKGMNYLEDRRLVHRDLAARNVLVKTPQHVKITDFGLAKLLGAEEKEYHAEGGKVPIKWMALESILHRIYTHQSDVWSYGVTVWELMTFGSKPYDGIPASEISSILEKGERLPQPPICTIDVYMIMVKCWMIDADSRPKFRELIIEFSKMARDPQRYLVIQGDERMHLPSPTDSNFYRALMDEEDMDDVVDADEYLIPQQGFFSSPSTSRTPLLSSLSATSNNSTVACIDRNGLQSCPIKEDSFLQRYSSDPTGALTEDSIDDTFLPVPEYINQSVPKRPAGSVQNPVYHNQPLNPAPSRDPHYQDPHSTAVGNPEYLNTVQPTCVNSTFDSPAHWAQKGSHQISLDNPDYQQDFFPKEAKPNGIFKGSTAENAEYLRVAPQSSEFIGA
Experimental: The Omnia Assay Protocol for potency assessment against EGFR is performed as described in Example 251 above except that the EGFR-WT- and EGFR T790M/L858R-modified optimized reagent conditions are: […]

ERBB1 = ERBB1 (Homo sapiens (Human), UniProt P00533); test: Z'-LYTE kinase inhibition, ErbB1; format: biochemical
Experimental: (§1) Compounds of the present invention were assayed as inhibitors of one or more of ErbB1, ErbB2, and/or ErbB4 in a manner substantially similar to the method described by Invitrogen Corp (Invitrogen Corporation, 1600 Faraday Avenue, Carlsbad, Calif., CA; http://www.invitrogen.com/downloads/Z-LYTE_Brochure_1205.pdf) using the Z'-LYTE™ biochemical assay procedure or similar biochemical assay. The Z'-LYTE™ biochemical assay employs a fluorescence-based, coupled-enzyme format and is based on the differential sensitivity of phosphorylated and non-phosphorylated peptides to proteolytic cleavage.

ERBB4 (HER4) = ERBB4 (HER4) (Homo sapiens (Human), UniProt Q15303); test: Z'-LYTE kinase inhibition, ErbB4; format: biochemical
Experimental: as §1

EGFR-WT = EGFR-WT (Homo sapiens (Human), UniProt P00533); test: Omnia assay for potency assessment against EGFR (WT)
Sequence of EGFR-WT (P00533 668-1210): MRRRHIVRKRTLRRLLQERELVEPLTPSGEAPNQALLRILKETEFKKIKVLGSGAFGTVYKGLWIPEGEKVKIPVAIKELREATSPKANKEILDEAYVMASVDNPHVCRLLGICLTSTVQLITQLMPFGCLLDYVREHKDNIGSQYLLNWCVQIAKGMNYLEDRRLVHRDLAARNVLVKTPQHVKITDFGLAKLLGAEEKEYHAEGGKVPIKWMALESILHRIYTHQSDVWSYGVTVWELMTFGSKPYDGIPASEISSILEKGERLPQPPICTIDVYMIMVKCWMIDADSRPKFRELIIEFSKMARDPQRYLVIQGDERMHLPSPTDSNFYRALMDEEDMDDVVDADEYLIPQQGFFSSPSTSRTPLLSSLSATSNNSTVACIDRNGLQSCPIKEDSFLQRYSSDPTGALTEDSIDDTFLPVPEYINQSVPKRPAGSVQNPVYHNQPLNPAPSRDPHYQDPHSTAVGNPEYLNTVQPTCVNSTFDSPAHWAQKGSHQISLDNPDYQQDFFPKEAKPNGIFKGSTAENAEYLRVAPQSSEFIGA

EGFR-T790M/L858R = EGFR-T790M/L858R (Homo sapiens (Human), UniProt P00533, L858R/T790M); test: Omnia assay for potency assessment against EGFR (T790M/L858R); settings: read-out: EGFR (T790M/L858R); EGFR mutant T790M/L858R
Sequence of EGFR-T790M/L858R (P00533 25-1210 T790M/L858R): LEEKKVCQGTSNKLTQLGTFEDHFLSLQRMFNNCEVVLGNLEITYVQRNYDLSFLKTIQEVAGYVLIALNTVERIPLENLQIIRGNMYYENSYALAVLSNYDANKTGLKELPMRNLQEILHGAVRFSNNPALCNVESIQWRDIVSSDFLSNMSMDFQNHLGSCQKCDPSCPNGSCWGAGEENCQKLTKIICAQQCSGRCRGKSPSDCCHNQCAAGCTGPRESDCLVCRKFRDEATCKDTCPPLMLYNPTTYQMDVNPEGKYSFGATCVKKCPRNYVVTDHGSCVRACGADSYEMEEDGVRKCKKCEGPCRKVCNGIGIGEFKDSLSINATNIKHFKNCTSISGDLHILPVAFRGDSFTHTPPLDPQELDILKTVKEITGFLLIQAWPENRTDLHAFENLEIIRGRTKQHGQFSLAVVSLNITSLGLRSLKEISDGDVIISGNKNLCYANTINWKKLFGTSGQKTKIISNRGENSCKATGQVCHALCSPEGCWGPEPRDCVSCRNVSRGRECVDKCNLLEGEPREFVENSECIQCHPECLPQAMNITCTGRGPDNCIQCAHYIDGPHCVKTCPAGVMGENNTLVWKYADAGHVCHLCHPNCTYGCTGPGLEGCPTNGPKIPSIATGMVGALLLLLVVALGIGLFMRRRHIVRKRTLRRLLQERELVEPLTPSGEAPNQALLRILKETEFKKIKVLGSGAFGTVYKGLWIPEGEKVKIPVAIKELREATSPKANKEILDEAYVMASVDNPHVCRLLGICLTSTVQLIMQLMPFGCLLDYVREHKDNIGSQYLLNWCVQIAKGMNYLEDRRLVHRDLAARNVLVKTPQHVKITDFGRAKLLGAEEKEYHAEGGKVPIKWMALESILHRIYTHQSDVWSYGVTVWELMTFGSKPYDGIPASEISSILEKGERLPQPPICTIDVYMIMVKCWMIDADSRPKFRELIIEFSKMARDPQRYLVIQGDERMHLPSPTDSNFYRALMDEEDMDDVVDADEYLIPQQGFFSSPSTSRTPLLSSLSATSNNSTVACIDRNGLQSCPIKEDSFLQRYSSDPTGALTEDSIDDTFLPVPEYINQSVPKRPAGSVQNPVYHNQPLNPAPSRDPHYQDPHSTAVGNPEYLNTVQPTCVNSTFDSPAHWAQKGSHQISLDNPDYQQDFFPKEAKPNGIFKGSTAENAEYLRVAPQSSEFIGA

BTK [2] = target: T1, BTK; test: BTK Ramos cellular assay (PLCγ2 phosphorylation); format: cell-based; settings: Ramos cells, 1 hour compound, anti-IgM stimulation, p-PLCγ2; read-out: BTK Inhibition (IC50), BTK Ramos cellular inhibition
BTK [3] = target: T1, BTK; test: Mass spectrometry for BTK (intact protein); format: binding; settings: 1 hr, 10× fold excess of compound
Experimental: Intact BTK was incubated for 1 hr at a 10× fold excess of I-7 to protein. Aliquots (2 μl) of the samples were diluted with 10 μl of 0.1% TFA prior to micro C4 ZipTipping directly onto the MALDI target using Sinapinic acid as the desorption matrix (10 mg/ml in 0.1% TFA:Acetonitrile 20:80).

[4] = system: TI-2 independent B cell activation; test: In vivo thymus-independent (TI-2) B cell activation; settings: C57/B6 mice, 100 mg/kg daily day 0 through 5, TNP-Ficoll, serum day 6
PG-PS arthritis model = format: in vivo; settings: female Lewis rats, oral gavage daily through day 22
Experimental: On day 0, female Lewis rats received an intraperitoneal (IP) bolus of peptidoglycan-polysaccharide (PG-PS) in an amount of 15 μg/g rat body weight. Baseline control rats received an IP bolus of PBS. The vehicle and treatment groups were dosed via oral gavage just prior to PG-PS administration. Treatment with vehicle and compound continued each day through day 22. Maximal lateral ankle width measurements of both rear limbs were collected with a caliper throughout the study. On day 23, study was terminated and the final change in ankle swelling was calculated and compared to vehicle controls.

BTK [5] = target: T1, BTK; test: BTK occupancy from in vitro samples by ELISA (Ramos cells); format: cell-based; settings: ELISA with probe I-215
Experimental: (§2) In order to determine the amount of free BTK in cell or tissue lysates, an ELISA protocol was employed that utilizes a biotinylated probe compound that binds only to free, unoccupied BTK. The conjugated biotin is captured on a streptavidin-coated ELISA plate and detected with a mouse anti-BTK antibody (Becton Dickinson, Franklin Lakes, N.J., USA) and a secondary goat anti-mouse HRP antibody (Zymed, South San Francisco, Calif., USA).
All samples were prepared with equal concentrations of Biorad lysis buffer (Hercules, Calif., USA), 0.5% bovine serum albumin in PBS with 0.05% Tween-20 to give a final concentration of 1 μM I-215. Samples were incubated in a mixing plate for 1 hr at room temperature while shaking to allow probe compound I-215 to bind to free BTK. After incubation with I-215, samples were added to a washed, streptavidin-coated ELISA plate (Pierce, Rockford, Ill., USA) and incubated for 1 hr at room temperature while shaking. The plate was then washed with PBS containing 0.05% Tween-20 using an automatic plate washer. Anti-BTK antibody was prepared at 1:1000 dilution in 0.5% BSA in PBS (0.05% Tween-20) and added to the ELISA plate. The plate was incubated for 1 hr at room temperature while shaking. The plate was washed as described above and the secondary HRP antibody was prepared at 1:5000 dilution in 0.5% BSA in PBS (0.05% Tween-20). The plate was incubated and washed as described above. TMB was added to the plate, and OD650 was monitored until reaching 1 OD unit. The reaction was then stopped with addition of H2SO4. The plate was analyzed using Gen 5 software, and a 4 Parameter Logistic curve was employed to quantitate samples. Recombinant BTK (Invitrogen, Carlsbad, Calif., USA) was used for the standard curve.
A concentration designated as “A” is greater than 1 nM; a concentration designated as “B” is greater than 10 nM; and a concentration designated as “C” is greater than 50 nM.

BTK [6] = target: T1, BTK; test: Human primary B cell covalent probe occupancy in vitro; format: cell-based; settings: human primary B cells, 1 h at 37° C., probe I-215 ELISA
Experimental: as §2
(§3) All samples were prepared with equal concentrations of Biorad lysis buffer (Hercules, Calif., USA), 0.5% bovine serum albumin in PBS with 0.05% Tween-20 to give a final concentration of 1 μM I-215. Samples were incubated in a mixing plate for 1 hr at room temperature while shaking to allow probe compound I-215 to bind to free BTK. After incubation with I-215, samples were added to a washed, streptavidin-coated ELISA plate (Pierce, Rockford, Ill., USA) and incubated for 1 hr at room temperature while shaking. […] TMB was added to the plate, and OD650 was monitored until reaching 1 OD unit. […] The plate was analyzed using Gen 5 software, and a 4 Parameter Logistic curve was employed to quantitate samples. […]
Human primary B cells were isolated as described in Example 256, then resuspended in RPMI media (10% serum). The compound to be analyzed was added at a 1:1000 dilution to media. […] The supernatant was analyzed as described in Example 283 using I-215.

BTK [7] = target: BTK (Canis lupus familiaris, UniProt A0A8I3P3Z9); test: Dog primary B cell covalent probe occupancy in vitro; format: cell-based; settings: canine PBMCs, one hour at 37° C., probe I-215 ELISA
Sequence of BTK (Canis lupus familiaris, UniProt A0A8I3P3Z9) (A0A8I3P3Z9 1-664): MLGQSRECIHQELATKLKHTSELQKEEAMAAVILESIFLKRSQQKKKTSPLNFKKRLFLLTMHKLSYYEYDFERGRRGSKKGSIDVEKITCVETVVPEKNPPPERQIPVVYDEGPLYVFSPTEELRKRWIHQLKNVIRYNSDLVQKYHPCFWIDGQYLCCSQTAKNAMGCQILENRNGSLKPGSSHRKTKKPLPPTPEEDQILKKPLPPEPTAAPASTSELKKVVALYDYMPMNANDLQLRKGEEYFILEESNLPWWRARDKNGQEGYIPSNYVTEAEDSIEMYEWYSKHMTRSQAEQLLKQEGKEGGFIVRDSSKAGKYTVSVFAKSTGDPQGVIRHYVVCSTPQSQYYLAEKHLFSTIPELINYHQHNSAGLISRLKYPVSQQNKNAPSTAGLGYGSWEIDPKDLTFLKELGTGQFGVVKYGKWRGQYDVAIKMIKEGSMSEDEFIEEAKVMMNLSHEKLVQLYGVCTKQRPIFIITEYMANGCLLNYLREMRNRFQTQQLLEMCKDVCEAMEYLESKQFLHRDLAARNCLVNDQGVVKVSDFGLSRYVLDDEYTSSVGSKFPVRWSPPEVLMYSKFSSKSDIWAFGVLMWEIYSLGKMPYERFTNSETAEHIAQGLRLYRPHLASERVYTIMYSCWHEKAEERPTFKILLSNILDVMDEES
Experimental: as §2, §3
Canine whole blood (30 mL) was diluted to 50 mL total with 1×PBS and layered on top of Histopaque-1077 (Sigma Aldrich). […] The supernatant was analyzed as described in Example 283 using I-215. […]

Human naïve B cells = test: Human primary B cell proliferation assay; format: cell-based
Experimental: Human naïve B cells were purified from 100 mL whole blood using a MACS purification kit designed to isolate CD19+, IgD+ cells by negative selection. Purified naïve B cells were resuspended in RPMI complete and stimulated with 5 μg/ml α-IgM for 72 hours. ^3H-Thymidine was included in the culture media for the final 16 h, cells were harvested and ^3H incorporation measured. Inhibition of B cell proliferation correlates with inhibition of BTK substrate phosphorylation after α-IgM stimulation.

T1 sequence (Q06187 whole entry): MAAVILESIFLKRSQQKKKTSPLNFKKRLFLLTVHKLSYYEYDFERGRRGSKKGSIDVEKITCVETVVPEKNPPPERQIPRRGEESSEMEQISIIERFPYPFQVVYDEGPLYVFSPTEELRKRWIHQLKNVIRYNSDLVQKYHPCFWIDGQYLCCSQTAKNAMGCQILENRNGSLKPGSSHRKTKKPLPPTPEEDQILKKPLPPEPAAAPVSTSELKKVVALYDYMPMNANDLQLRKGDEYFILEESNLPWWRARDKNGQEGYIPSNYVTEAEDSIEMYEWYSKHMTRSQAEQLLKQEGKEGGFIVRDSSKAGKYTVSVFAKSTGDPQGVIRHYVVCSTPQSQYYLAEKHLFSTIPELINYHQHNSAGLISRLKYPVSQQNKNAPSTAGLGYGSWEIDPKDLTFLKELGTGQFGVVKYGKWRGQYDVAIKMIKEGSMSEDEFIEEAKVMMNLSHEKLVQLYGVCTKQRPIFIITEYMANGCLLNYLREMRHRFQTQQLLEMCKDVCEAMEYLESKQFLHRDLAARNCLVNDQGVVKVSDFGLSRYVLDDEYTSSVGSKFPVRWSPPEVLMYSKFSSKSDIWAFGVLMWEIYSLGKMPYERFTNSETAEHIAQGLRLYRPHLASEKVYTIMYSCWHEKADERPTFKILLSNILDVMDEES

IC50 (BTK [1]) [nM]	IC50 (ITK) [nM]	IC50 (EGFR T790M) [nM]	IC50 (ERBB1) [nM]	IC50 (ERBB4 (HER4)) [nM]	IC50 (EGFR-WT) [nM]	IC50 (EGFR-T790M/L858R) [nM]	IC50 (BTK [2]) [nM]	covalent modification of BTK (mass spectrometry) (BTK [3])	>50% occupancy (concentration at which >50% of BTK is occupied) (BTK [5])	>90% occupancy (concentration at which >90% of BTK is occupied) (BTK [5])	concentration at which at least 50% of BTK is occupied (BTK [6])	concentration at which at least 50% of BTK is occupied (BTK [7])	IC50 (EGFR-WT; read-out: EGFR (wild type inhibition), EGFR wild type) [nM]	biochemical activity against BTK (BTK [1])	SMILES	% Inhibition IgG3 (1:100) [4] [%]	% Inhibition IgM (1:1600) [4] [%]	% inhibition ankle swelling (PG-PS arthritis model) [%]	activity in the naïve B cell proliferation assay (Human naïve B cells)
100 to 1000	100 to 1000	10 to 100	2230	2170	10 to 100	< 10	–	–	–	–	–	–	–	–	C=CC(=O)Nc1ccc(C)c(Nc2nccc(-c3cccnc3)n2)c1 [Compound I-56, N-(4-methyl-3-(4-(pyridin-3-yl)pyrimidin-2-ylamino)phenyl) acrylamide]	–	–	–	–
< 10	10 to 100	< 10	–	–	10 to 100	< 10	< 10	completely modify	A (greater than 1 nM)	B (greater than 10 nM)	greater than 10 nM	greater than 10 nM	–	–	C=CC(=O)Nc1cccc(Nc2nc(Nc3ccc(OCCOC)c(F)c3)ncc2F)c1 [Compound I-96, N-(3-(2-(3-fluoro-4-(2-methoxyethoxy)phenylamino)-5-fluoropyrimidin-4-ylamino)phenyl)acrylamide]	37.2	43	82.8	–
–	10 to 100	–	–	–	–	–	–	completely modify	A (greater than 1 nM)	C (greater than 50 nM)	greater than 10 nM	–	< 10	–	C=CC(=O)Nc1cccc(Nc2nc(Nc3ccc(OCCOC)cc3)ncc2F)c1 [Compound I-182, N-(3-(5-fluoro-2-(4-(2-methoxyethoxy)phenylamino)pyrimidin-4-ylamino)phenyl)acrylamide]	40	25	–	–
100 to 1000	–	–	–	–	1000 to 10000	1000 to 10000	–	–	–	–	–	–	–	biochemically inactive	CCC(=O)Nc1cccc(Nc2nc(Nc3ccccc3)ncc2C)c1 [I^R-7, N-(3-(5-methyl-2-(phenylamino)pyrimidin-4-ylamino)phenyl) propionamide]	–	–	–	not active
